Data published in patent US8648066B2 (Exelixis, Inc., priority 2009, dated 2014).

Target: mTOR/GbL/Raptor (mTORC1) (Homo sapiens, UniProt P42345)
Experiment: mTOR/GbL/Raptor (mTORC1) ELISA assay
Format: biochemical
Conditions: phosphorylation of 4E-BP1; 0.2 nM mTORC1, 10 μM ATP; read-out: IC50 in this assay (mTORC1 ELISA)
In short: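 Human mTORC1 (0.2 nM) phosphorylated 50 nM His-tagged 4E-BP1 with 10 µM ATP in HEPES pH 7.2 containing 10 mM MnCl2, 120 min at ambient temperature. Substrate was captured on Ni-chelate plates; phospho-4E-BP1 was detected by primary antibody and HRP secondary with luminescence.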

SMILES | IC50 [nM]
Cc1nc2ncc(-c3ccc4c(c3)CN(c3ncnc(N5CCOCC5)c3C)CCO4)cc2[nH]1 [Example 551] | 250 to 1000
CC1(C)CCc2ncnc(N3CCOc4ccc(-c5ccc(Cl)c(NS(C)(=O)=O)c5)cc4C3)c2C1 [Example 621] | 250 to 1000
Cc1nc2ncc(-c3ccc4c(c3)CN(c3ncnc(C)c3C(C)C)CCO4)cc2[nH]1 [Example 564, 7-(2-methyl-1H-imidazo[4,5-b]pyridin-6-yl)-4-[6-methyl-5-(1-methylethyl)pyrimidin-4-yl]-2,3,4,5-tetrahydro-1,4-benzoxazepine] | ≤ 10
CC1(C)CCc2ncnc(N3CCOc4ccc(-c5cnc(N)c(S(=O)(=O)NC[C@H]6CCNC6)c5)cc4C3)c2C1 [Example 391, 2-amino-5-[4-(6,6-dimethyl-5,6,7,8-tetrahydroquinazolin-4-yl)-2,3,4,5-tetrahydro-1,4-benzoxazepin-7-yl]-N-[(3S)-pyrrolidin-3-ylmethyl]pyridine-3-sulfonamide] | 10 to 50
Cc1nc2ncc(-c3ccc4c(c3)CN(c3nc(CNC(C)C)nc5c3CC(C)(C)CC5)CCO4)cc2[nH]1 [Example 607, N-({6,6-dimethyl-4-[7-(2-methyl-1H-imidazo[4,5-b]pyridin-6-yl)-2,3-dihydro-1,4-benzoxazepin-4(5H)-yl]-5,6,7,8-tetrahydroquinazolin-2-yl}methyl)propan-2-amine] | ≤ 10
CC1(C)CCc2ncnc(N3CCOc4ccc(-c5cnc(N)c(S(=O)(=O)NCCCO)c5)cc4C3)c2C1 [Example 375, 2-amino-5-[4-(6,6-dimethyl-5,6,7,8-tetrahydroquinazolin-4-yl)-2,3,4,5-tetrahydro-1,4-benzoxazepin-7-yl]-N-(3-hydroxypropyl)pyridine-3-sulfonamide] | ≤ 10
Cc1ncnc(N2CCOc3ccc(-c4ccc5nc(N)sc5n4)cc3C2)c1Cc1ccc(F)cc1 [Example 140, 5-(4-{5-[(4-fluorophenyl)methyl]-6-methylpyrimidin-4-yl}-2,3,4,5-tetrahydro-1,4-benzoxazepin-7-yl)[1,3]thiazolo[5,4-b]pyridin-2-amine] | 10 to 50

The remaining lines, values ahead:

IC50 [nM] | SMILES
50 to 250 | CCNc1nc2ccc(-c3ccc4c(c3)CN(c3ncnc(Nc5ccccc5)c3C)CCO4)cc2[nH]1 [Example 287, N-ethyl-6-{4-[5-methyl-6-(phenylamino)pyrimidin-4-yl]-2,3,4,5-tetrahydro-1,4-benzoxazepin-7-yl}-1H-benzimidazol-2-amine]
≥ 2000 | COc1ccc2c(N3CCOc4ccc(-c5ccc(-c6nc7ccccc7[nH]6)cc5)cc4C3)nc(C)nc2c1 [Example 240, 7-[4-(1H-benzimidazol-2-yl)phenyl]-4-[2-methyl-7-(methyloxy)quinoazlin-4-yl]-2,3,4,5-tetrahydro-1,4-benzoxazepine]
250 to 1000 | CCNc1nc2ccc(-c3ccc4c(c3)CN(c3cc(Nc5ccc(OC)cc5)ncn3)CCO4)cc2[nH]1 [Example 276, N-ethyl-6-[4-(6-{[4-(methyloxy)phenyl]amino}pyrimidin-4-yl)-2,3,4,5-tetrahydro-1H-benzoxazepin-7-yl]-1H-benzimidazol-2-amine]
10 to 50 | CC(=O)OCc1nc(C)c(C(C)C)c(N2CCOc3ccc(-c4ccc5nc(C)[nH]c5c4)cc3C2)n1 [Example 686, {4-methyl-6-[7-(2-methyl-1H-benzimidazol-5-yl)-2,3-dihydro-1,4-benzoxazepin-4(5H)-yl]-5-(1-methylethyl)pyrimidin-2-yl}methyl acetate]
250 to 1000 | Cc1nc2ccc(-c3ccc4c(c3)CN(c3ncnc5ccc(OCC#N)cc35)CCO4)cc2[nH]1 [Example 160, ({4-[7-(2-methyl-1H-benzimidazol-6-yl)-2,3-dihydro-1,4-benzoxazepin-4(5H)-yl]quinazolin-6-yl}oxy)acetonitrile]
10 to 50 | Cc1nc2ccc(-c3ccc4c(c3)CN(c3ncnc(C)c3Cc3ccccc3C)CCO4)cc2[nH]1 [Example 86, 7-(2-methyl-1H-benzimidazol-6-yl)-4-{6-methyl-5-[(2-methylphenyl)methyl]pyrimidin-4-yl}-2,3,4,5-tetrahydro-1,4-benzoxazepine]
